Measured values taken from PMC10053807, “Natural Lipid Extracts as an Artificial Membrane for Drug Permeability Assay: In Vitro and In Silico Characterization” (Pharmaceutics, 2023).

Experiment: PAMPA permeability, liver polar lipid extract (LPLE) membrane
Conditions: bovine, PAMPA, pH 7.4, Mean Pe, n=3, * = not detected at acceptor side, value calculated from limit of detection

Compound	Papp at 4 h, 100 μM [×10⁻⁶ cm/s]
NC(=O)Cc1cccc(C(=O)c2ccccc2)c1N [nepafenac]	38.6
CCn1cc(C(=O)O)c(=O)c2cc(F)c(N3CCNCC3)cc21 [norfloxacin]	7.17
O=C1NC(=O)C(c2ccccc2)(c2ccccc2)N1 [phenytoin]	34.6
CC(=O)CC(c1ccccc1)c1c(O)c2ccccc2oc1=O (stereo not shown) [warfarin]	7.48

Same assay, conditions: bovine, PAMPA, pH 7.4, Mean logPe, n=3

Compound	Papp at 4 h, 100 μM [×10⁻⁶ cm/s]
CCn1cc(C(=O)O)c(=O)c2cc(F)c(N3CCNCC3)cc21 [norfloxacin]	5.25

Same assay, conditions: n=3

Compound	Mean logPe
NC(=O)Cc1cccc(C(=O)c2ccccc2)c1N [nepafenac]	-4.44
O=C1CN=C(c2ccccc2)c2cc([N+](=O)[O-])ccc2N1 [nitrazepam]	-4.60
O=C1NC(=O)C(c2ccccc2)(c2ccccc2)N1 [phenytoin]	-4.46
N=C(N)c1ccc(OCCCOc2ccc(C(=N)N)cc2)cc1 [propamidine]	< -6.12
CC(C)c1nc(N(C)S(C)(=O)=O)nc(-c2ccc(F)cc2)c1/C=C/[C@@H](O)C[C@@H](O)CC(=O)O [rosuvastatin]	< -6.32
CC(=O)CC(c1ccccc1)c1c(O)c2ccccc2oc1=O (stereo not shown) [warfarin]	-5.14
ondansetron	-4.59

Same assay, conditions: n=3, * = not detected at acceptor side, value calculated from limit of detection

Compound	Mean Pe
N=C(N)c1ccc(OCCCOc2ccc(C(=N)N)cc2)cc1 [propamidine]	< 0,76* 10-6 cm/s
CC(C)c1nc(N(C)S(C)(=O)=O)nc(-c2ccc(F)cc2)c1/C=C/[C@@H](O)C[C@@H](O)CC(=O)O [rosuvastatin]	< 0,48* 10-6 cm/s
ondansetron	25.69 10-6 cm/s

Experiment: PAMPA permeability, comparison across the six natural lipid extract membranes
Conditions: compounds near the abscissa of the PCA biplot, Figure 12

Compound	dependence of permeability on the lipid extract (PCA biplot)
O=C1NC(=O)C(c2ccccc2)(c2ccccc2)N1 [phenytoin]	independent of the investigated lipids

Same assay, conditions: heart, liver and brain extracts, Figure 10A–C

Compound	total-polar permeability comparison
O=C1CN=C(c2ccccc2)c2cc([N+](=O)[O-])ccc2N1 [nitrazepam]	higher permeability in total lipids

Experiment: PAMPA permeability, heart polar lipid extract (HPLE) membrane
Conditions: Heart Polar lipid extract membrane, n=3

Compound	Mean logPe
NC(=O)Cc1cccc(C(=O)c2ccccc2)c1N [nepafenac]	-4.59
O=C1CN=C(c2ccccc2)c2cc([N+](=O)[O-])ccc2N1 [nitrazepam]	-4.54
CCn1cc(C(=O)O)c(=O)c2cc(F)c(N3CCNCC3)cc21 [norfloxacin]	-5.80
O=C1NC(=O)C(c2ccccc2)(c2ccccc2)N1 [phenytoin]	-4.42
CC(=O)CC(c1ccccc1)c1c(O)c2ccccc2oc1=O (stereo not shown) [warfarin]	-5.50
ondansetron	-4.86

Same assay, conditions: Heart Polar lipid extract membrane, n=3; * = not detected at acceptor side, value calculated from limit of detection

Compound	Mean Pe
N=C(N)c1ccc(OCCCOc2ccc(C(=N)N)cc2)cc1 [propamidine]	< 0,73* 10-6 cm/s
CC(C)c1nc(N(C)S(C)(=O)=O)nc(-c2ccc(F)cc2)c1/C=C/[C@@H](O)C[C@@H](O)CC(=O)O [rosuvastatin]	< 0,46* 10-6 cm/s
ondansetron	13.69 10-6 cm/s

Same assay, conditions: bovine, PAMPA, pH 7.4

Compound	Papp at 4 h, 100 μM [×10⁻⁶ cm/s]
NC(=O)Cc1cccc(C(=O)c2ccccc2)c1N [nepafenac]	25.9
CCn1cc(C(=O)O)c(=O)c2cc(F)c(N3CCNCC3)cc21 [norfloxacin]	1.59
O=C1NC(=O)C(c2ccccc2)(c2ccccc2)N1 [phenytoin]	38.4
N=C(N)c1ccc(OCCCOc2ccc(C(=N)N)cc2)cc1 [propamidine]	< 0.741
CC(C)c1nc(N(C)S(C)(=O)=O)nc(-c2ccc(F)cc2)c1/C=C/[C@@H](O)C[C@@H](O)CC(=O)O [rosuvastatin]	< 0.468
CC(=O)CC(c1ccccc1)c1c(O)c2ccccc2oc1=O (stereo not shown) [warfarin]	3.25

Experiment: PAMPA permeability, liver total lipid extract (LTLE) membrane
Conditions: Liver total lipid extract membrane, n=3

Compound	Mean logPe
NC(=O)Cc1cccc(C(=O)c2ccccc2)c1N [nepafenac]	-4.14
O=C1CN=C(c2ccccc2)c2cc([N+](=O)[O-])ccc2N1 [nitrazepam]	-4.26
O=C1NC(=O)C(c2ccccc2)(c2ccccc2)N1 [phenytoin]	-4.35
N=C(N)c1ccc(OCCCOc2ccc(C(=N)N)cc2)cc1 [propamidine]	< -6.12
CC(C)c1nc(N(C)S(C)(=O)=O)nc(-c2ccc(F)cc2)c1/C=C/[C@@H](O)C[C@@H](O)CC(=O)O [rosuvastatin]	< -6.32
CC(=O)CC(c1ccccc1)c1c(O)c2ccccc2oc1=O (stereo not shown) [warfarin]	-4.86

Same assay, conditions: Liver total lipid extract membrane, n=3; * = not detected at acceptor side, value calculated from limit of detection

Compound	Mean Pe
CCn1cc(C(=O)O)c(=O)c2cc(F)c(N3CCNCC3)cc21 [norfloxacin]	< 0,5* 10-6 cm/s
N=C(N)c1ccc(OCCCOc2ccc(C(=N)N)cc2)cc1 [propamidine]	< 0,76* 10-6 cm/s
CC(C)c1nc(N(C)S(C)(=O)=O)nc(-c2ccc(F)cc2)c1/C=C/[C@@H](O)C[C@@H](O)CC(=O)O [rosuvastatin]	< 0,48* 10-6 cm/s
ondansetron	57.25 10-6 cm/s

Same assay, conditions: bovine, PAMPA, pH 7.4

Compound	Papp at 4 h, 100 μM [×10⁻⁶ cm/s]
NC(=O)Cc1cccc(C(=O)c2ccccc2)c1N [nepafenac]	72.9
CCn1cc(C(=O)O)c(=O)c2cc(F)c(N3CCNCC3)cc21 [norfloxacin]	< 0.501
O=C1NC(=O)C(c2ccccc2)(c2ccccc2)N1 [phenytoin]	44.7
CC(=O)CC(c1ccccc1)c1c(O)c2ccccc2oc1=O (stereo not shown) [warfarin]	13.9

Experiment: PAMPA permeability, brain total lipid extract (BTLE) membrane
Conditions: Brain total lipid extract membrane, n=3

Compound	Mean logPe
NC(=O)Cc1cccc(C(=O)c2ccccc2)c1N [nepafenac]	-4.61
O=C1CN=C(c2ccccc2)c2cc([N+](=O)[O-])ccc2N1 [nitrazepam]	-4.47
O=C1NC(=O)C(c2ccccc2)(c2ccccc2)N1 [phenytoin]	-4.46
N=C(N)c1ccc(OCCCOc2ccc(C(=N)N)cc2)cc1 [propamidine]	< -6.13
CC(C)c1nc(N(C)S(C)(=O)=O)nc(-c2ccc(F)cc2)c1/C=C/[C@@H](O)C[C@@H](O)CC(=O)O [rosuvastatin]	< -6.33
CC(=O)CC(c1ccccc1)c1c(O)c2ccccc2oc1=O (stereo not shown) [warfarin]	-5.62
ondansetron	-4.63

Same assay, conditions: Brain total lipid extract membrane, n=3; * = not detected at acceptor side, value calculated from limit of detection

Compound	Mean Pe
CCn1cc(C(=O)O)c(=O)c2cc(F)c(N3CCNCC3)cc21 [norfloxacin]	< 0,49* 10-6 cm/s
N=C(N)c1ccc(OCCCOc2ccc(C(=N)N)cc2)cc1 [propamidine]	< 0,73* 10-6 cm/s
CC(C)c1nc(N(C)S(C)(=O)=O)nc(-c2ccc(F)cc2)c1/C=C/[C@@H](O)C[C@@H](O)CC(=O)O [rosuvastatin]	< 0,46* 10-6 cm/s
ondansetron	23.49 10-6 cm/s

Same assay, conditions: pig, PAMPA, pH 7.4

Compound	Papp at 4 h, 100 μM [×10⁻⁶ cm/s]
NC(=O)Cc1cccc(C(=O)c2ccccc2)c1N [nepafenac]	24.4
O=C1CN=C(c2ccccc2)c2cc([N+](=O)[O-])ccc2N1 [nitrazepam]	34.1
CCn1cc(C(=O)O)c(=O)c2cc(F)c(N3CCNCC3)cc21 [norfloxacin]	< 0.49
O=C1NC(=O)C(c2ccccc2)(c2ccccc2)N1 [phenytoin]	35.3
CC(=O)CC(c1ccccc1)c1c(O)c2ccccc2oc1=O (stereo not shown) [warfarin]	2.43

Experiment: PAMPA permeability, brain polar lipid extract (BPLE) membrane
Conditions: Brain Polar lipid extract membrane, n=3

Compound	Mean logPe
NC(=O)Cc1cccc(C(=O)c2ccccc2)c1N [nepafenac]	-4.67
O=C1CN=C(c2ccccc2)c2cc([N+](=O)[O-])ccc2N1 [nitrazepam]	-4.67
CCn1cc(C(=O)O)c(=O)c2cc(F)c(N3CCNCC3)cc21 [norfloxacin]	< -6.30
O=C1NC(=O)C(c2ccccc2)(c2ccccc2)N1 [phenytoin]	-4.57
N=C(N)c1ccc(OCCCOc2ccc(C(=N)N)cc2)cc1 [propamidine]	< -6.12
CC(C)c1nc(N(C)S(C)(=O)=O)nc(-c2ccc(F)cc2)c1/C=C/[C@@H](O)C[C@@H](O)CC(=O)O [rosuvastatin]	< -6.32
ondansetron	-4.71

Same assay, conditions: Brain Polar lipid extract membrane, n=3; * = not detected at acceptor side, value calculated from limit of detection

Compound	Mean Pe
CCn1cc(C(=O)O)c(=O)c2cc(F)c(N3CCNCC3)cc21 [norfloxacin]	< 0,50* 10-6 cm/s
N=C(N)c1ccc(OCCCOc2ccc(C(=N)N)cc2)cc1 [propamidine]	< 0,76* 10-6 cm/s
CC(C)c1nc(N(C)S(C)(=O)=O)nc(-c2ccc(F)cc2)c1/C=C/[C@@H](O)C[C@@H](O)CC(=O)O [rosuvastatin]	< 0,48* 10-6 cm/s
ondansetron	19.60 10-6 cm/s

Same assay, conditions: pig, PAMPA, pH 7.4

Compound	Papp at 4 h, 100 μM [×10⁻⁶ cm/s]
NC(=O)Cc1cccc(C(=O)c2ccccc2)c1N [nepafenac]	21.3
O=C1CN=C(c2ccccc2)c2cc([N+](=O)[O-])ccc2N1 [nitrazepam]	21.5
O=C1NC(=O)C(c2ccccc2)(c2ccccc2)N1 [phenytoin]	27.2
CC(=O)CC(c1ccccc1)c1c(O)c2ccccc2oc1=O (stereo not shown) [warfarin]	0.47

Same assay, conditions: pig, PAMPA, pH 7.4, Mean logPe, Brain Polar lipid extract membrane, n=3

Compound	Papp at 4 h, 100 μM [×10⁻⁶ cm/s]
CC(=O)CC(c1ccccc1)c1c(O)c2ccccc2oc1=O (stereo not shown) [warfarin]	1.41

Experiment: in vitro
Conditions: bovine, PAMPA, pH 7.4

Compound	Papp at 4 h, 100 μM [×10⁻⁶ cm/s]
CC(=O)CC(c1ccccc1)c1c(O)c2ccccc2oc1=O (stereo not shown) [warfarin]	0.891

Experiment: PAMPA permeability, heart total lipid extract (HTLE) membrane
Conditions: Heart total lipid extract membrane, n=3

Compound	Mean logPe
NC(=O)Cc1cccc(C(=O)c2ccccc2)c1N [nepafenac]	-4.73
O=C1CN=C(c2ccccc2)c2cc([N+](=O)[O-])ccc2N1 [nitrazepam]	-4.46
O=C1NC(=O)C(c2ccccc2)(c2ccccc2)N1 [phenytoin]	-4.84
ondansetron	-5.01

Same assay, conditions: Heart total lipid extract membrane, n=3; * = not detected at acceptor side, value calculated from limit of detection

Compound	Mean Pe
CCn1cc(C(=O)O)c(=O)c2cc(F)c(N3CCNCC3)cc21 [norfloxacin]	< 0,54* 10-6 cm/s
N=C(N)c1ccc(OCCCOc2ccc(C(=N)N)cc2)cc1 [propamidine]	< 0,76* 10-6 cm/s
CC(C)c1nc(N(C)S(C)(=O)=O)nc(-c2ccc(F)cc2)c1/C=C/[C@@H](O)C[C@@H](O)CC(=O)O [rosuvastatin]	< 0,48* 10-6 cm/s
ondansetron	9.85 10-6 cm/s

Same assay, conditions: bovine, PAMPA, pH 7.4, Mean Pe, Heart total lipid extract membrane, n=3; * = not detected at acceptor side, value calculated from limit of detection

Compound	Papp at 4 h, 100 μM [×10⁻⁶ cm/s]
NC(=O)Cc1cccc(C(=O)c2ccccc2)c1N [nepafenac]	18.8
O=C1NC(=O)C(c2ccccc2)(c2ccccc2)N1 [phenytoin]	14.7
CC(=O)CC(c1ccccc1)c1c(O)c2ccccc2oc1=O (stereo not shown) [warfarin]	0.29

Same assay, conditions: bovine, PAMPA, pH 7.4, Mean logPe, Heart total lipid extract membrane, n=3

Compound	Papp at 4 h, 100 μM [×10⁻⁶ cm/s]
CCn1cc(C(=O)O)c(=O)c2cc(F)c(N3CCNCC3)cc21 [norfloxacin]	< 0.537
N=C(N)c1ccc(OCCCOc2ccc(C(=N)N)cc2)cc1 [propamidine]	< 0.759
CC(C)c1nc(N(C)S(C)(=O)=O)nc(-c2ccc(F)cc2)c1/C=C/[C@@H](O)C[C@@H](O)CC(=O)O [rosuvastatin]	< 0.479

Same assay, conditions: pH 7.4, 4 h, 37 °C; in words (PCA biplot, Figure 11B)

Compound	PAMPA permeability on HTLE
CC(=O)CC(c1ccccc1)c1c(O)c2ccccc2oc1=O (stereo not shown) [warfarin]	low
